For data set [1], the system named is honey bees. The following applies: for Mortality (SE) 1 μg/ml IVM and 1mM Inhibitor: 1 mM inhibitor fed 24 h, then 1 mM inhibitor + 1 μg/ml ivermectin, proportion of bees dead at 24 h; for Mortality (SE), inhibitor-only control: 1 mM inhibitor without ivermectin, proportion of bees dead. The protocol: Apis mellifera were obtained from hives maintained on the University of Maryland farm in Beltsville, MD. Hives were maintained by standard bee keeping practices, and kept free of in-hive medications. Brood frames were taken from hives and emerging bees were collected daily into 207 ml cages of 15–20 bees and fed 30% sucrose w/v solution. Bees used in bioassays were 3–7 days post-eclosion.
Mortality was recorded 24 h after ivermectin exposure for 20–28 replicate cages of bees with approximately 15 bees in each cage. No-inhibitor controls (15 cages) were included in each assay. […] Mortality rates for each concentration of ivermectin were estimated by averaging the mortality of approximately 15 bees contained in each of 4 replicate cages. Similarly, to measure changes in sensitivity to ivermectin at varying dosages of the inhibitors, 4–12 replicate cages of bees (fewer at extreme dosages, more at intermediates) were fed a series of concentrations of each inhibitor (0, 0.03, 0.06, 0.125, 0.25, 0.5, 1.0, 2.0 mM) for 24 h, then fed a combination of the same inhibitor dose and 1μg/ml ivermectin solution.
Mortality was estimated as the proportion of bees within a cage that were dead at 24 or 48 h after treatment with ivermectin. Comparisons of mean mortality among treatments were tested using t-tests. LC50s of ivermectin with inhibitors were estimated using the ProcProbit procedure in SAS (V. 9.2).

For data set [2], the system named is honey bees. As to the kind of experiment: Acetamiprid assay: honey bee mortality after acetamiprid with or without inhibitors. Conditions: for Mean mortality, acetamiprid with inhibitor: 1 mM inhibitor + 0.1 μg/μl acetamiprid; for Mean mortality, inhibitor only: 1 mM inhibitor without insecticide, 3 replicate cages.

Structures are written as SMILES. Read-outs that look alike come from different tables or passages of the source.

Regarding `O=c1c(O)c(-c2ccc(O)c(O)c2)oc2cc(O)cc(O)c12` [Quercetin, quercetin], in the data set with honey bees [1], the “Mortality (SE) 1 μg/ml IVM and 1mM Inhibitor” value came to 0.54; the “Mortality (SE), inhibitor-only control” value is given as 0.02 (0.02). The “Mortality (SE), inhibitor-only control” value in the data set with honey bees [1] (listed as quercetin) stood at 0.02. Moreover, the “Mean mortality, acetamiprid with inhibitor” value in the data set with honey bees [2] (24 h) was found to be 0.97. Further, the “Mean mortality, inhibitor only” value in the data set on honey bees [2] is recorded as 0.07.
For the compound `C/C(=N\C#N)N(C)Cc1ccc(Cl)nc1` [acetamiprid], the “Mean mortality, acetamiprid alone” value with honey bees [2] (0.1 μg/μl acetamiprid, 24 h) was 0.25.
For `CO[C@@H]1[C@H](OC(=O)/C=C/C=C/C=C/C=C/C(=O)O)CC[C@]2(CO2)[C@H]1[C@@]1(C)O[C@@H]1CC=C(C)C` [Fumagillin, fumagillin], the “Low inhibitor dosage that increases sensitivity of bees to ivermectin” value with honey bees [1] (1 μg/ml ivermectin, 24 h (Fig 2)) is 0.03 mM. For the same compound, in the data set with honey bees [1], the “Mortality (SE) 1 μg/ml IVM and 1mM Inhibitor” value turned out to be 0.47; the “Mortality (SE), inhibitor-only control” value is given as 0.01 (0.01). Also, in the data set on honey bees [1] (listed as fumagillin), the “Mortality (SE), inhibitor-only control” value was found to be 0.01. The “Mean mortality, acetamiprid with inhibitor” value in the data set on honey bees [2] (24 h) is 0.80. The “Mean mortality, inhibitor only” value in the data set with honey bees [2] turned out to be 0.01.
As for `CC[C@H](C)[C@H]1O[C@]2(CC[C@@H]1C)C[C@@H]1C[C@@H](C/C=C(\C)[C@@H](O[C@H]3C[C@H](OC)[C@@H](O[C@H]4C[C@H](OC)[C@@H](O)[C@H](C)O4)[C@H](C)O3)[C@@H](C)/C=C/C=C3\CO[C@@H]4[C@H](O)C(C)=C[C@@H](C(=O)O1)[C@]34O)O2` [Ivermectin (IVM), Ivermectin], the “Synergism Ratio (LC50 relative to IVM)” value in the data set on honey bees [1] (1 mM inhibitor) is reported as 1.00. Further, in the data set with honey bees [1] (ivermectin alone in syrup, 24 h), the LC50 of ivermectin was 1.57 µg/mL.

The values above are taken from PMC4740413, “Multi-Drug Resistance Transporters and a Mechanism-Based Strategy for Assessing Risks of Pesticide Combinations to Honey Bees” (PLoS ONE, 2016).
